Results taken from the supplement of paper PMC10307832.

Legend:
Assay in all cases: relative viability (nuclei count vs DMSO), 5 days (fraction); higher = more cells survive
Idelalisib + AZD7762 = compound: CC[C@H](Nc1ncnc2[nH]cnc12)c1nc2cccc(F)c2c(=O)n1-c1ccccc1 [Idelalisib] + NC(=O)Nc1cc(-c2cccc(F)c2)sc1C(=O)N[C@H]1CCCNC1 [AZD7762] (partner 0.2 µM)
Method in brief: (§1)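 Five library-drug doses in √10 steps were combined with a fixed anchor-drug dose, or a single drug was given alone, by pin tool to lung cancer cell lines in 1536-well plates the day after seeding. Nuclei were stained and counted after 5 days. Relative viability is the nuclei count in treated wells over that in vehicle wells, taken as the median of duplicate plates.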

Idelalisib + Bortezomib = compound: CC[C@H](Nc1ncnc2[nH]cnc12)c1nc2cccc(F)c2c(=O)n1-c1ccccc1 [Idelalisib] + CC(C)C[C@H](NC(=O)[C@H](Cc1ccccc1)NC(=O)c1cnccn1)B(O)O [Bortezomib] (partner 0.002 µM)
Method in brief: as §1

Pemetrexed + Olaparib = compound: Nc1nc2[nH]cc(CCc3ccc(C(=O)N[C@@H](CCC(=O)O)C(=O)O)cc3)c2c(=O)[nH]1 [Pemetrexed] + O=C(c1cc(Cc2n[nH]c(=O)c3ccccc23)ccc1F)N1CCN(C(=O)C2CC2)CC1 [Olaparib] (partner 8 µM)
Method in brief: as §1

Pemetrexed + Pictilisib = compound: Nc1nc2[nH]cc(CCc3ccc(C(=O)N[C@@H](CCC(=O)O)C(=O)O)cc3)c2c(=O)[nH]1 [Pemetrexed] + CS(=O)(=O)N1CCN(Cc2cc3nc(-c4cccc5[nH]ncc45)nc(N4CCOCC4)c3s2)CC1 [Pictilisib] (partner 1 µM)
Method in brief: as §1

| Cell Line | relative viability (Idelalisib + AZD7762; first compound 0.04 µM) | relative viability (Idelalisib + AZD7762; first compound 0.1265 µM) | relative viability (Idelalisib + AZD7762; first compound 0.4 µM) | relative viability (Idelalisib + AZD7762; first compound 1.265 µM) | relative viability (Idelalisib + AZD7762; first compound 4 µM) | relative viability (Idelalisib + Bortezomib; first compound 0.04 µM) | relative viability (Idelalisib + Bortezomib; first compound 0.1265 µM) | relative viability (Idelalisib + Bortezomib; first compound 0.4 µM) | relative viability (Idelalisib + Bortezomib; first compound 1.265 µM) | relative viability (Idelalisib + Bortezomib; first compound 4 µM) | relative viability (Pemetrexed + Olaparib; first compound 0.002 µM) | relative viability (Pemetrexed + Olaparib; first compound 0.006325 µM) | relative viability (Pemetrexed + Olaparib; first compound 0.02 µM) | relative viability (Pemetrexed + Olaparib; first compound 0.06325 µM) | relative viability (Pemetrexed + Olaparib; first compound 0.2 µM) | relative viability (Pemetrexed + Pictilisib; first compound 0.002 µM) | relative viability (Pemetrexed + Pictilisib; first compound 0.006325 µM) | relative viability (Pemetrexed + Pictilisib; first compound 0.02 µM) | relative viability (Pemetrexed + Pictilisib; first compound 0.06325 µM) | relative viability (Pemetrexed + Pictilisib; first compound 0.2 µM) |
| --- | --- | --- | --- | --- | --- | --- | --- | --- | --- | --- | --- | --- | --- | --- | --- | --- | --- | --- | --- | --- |
| PC-14 | 0.313 | 0.446 | 0.334 | 0.265 | 0.301 | 0.913 | 0.996 | 0.947 | 0.982 | 0.814 | 0.272 | 0.151 | 0.274 | 0.127 | 0.0867 | 0.663 | 0.618 | 0.642 | 0.321 | 0.133 |
| HCC-78 | 0.509 | 0.649 | 0.555 | 0.609 | 0.547 | 0.365 | 0.423 |  | 0.46 | 0.266 |  | 0.792 | 0.662 | 0.29 | 0.233 |  | 0.179 | 0.197 | 0.14 | 0.157 |
| NCI-H1666 | 0.821 | 0.808 | 0.878 | 0.763 | 0.851 | 1.02 | 0.866 | 0.742 | 0.849 | 0.779 | 0.765 | 0.785 | 0.787 | 0.728 | 0.694 | 0.373 | 0.481 | 0.347 | 0.497 | 0.306 |
| LU99A | 0.335 | 0.422 | 0.294 | 0.209 | 0.425 | 1.29 | 1.13 | 1.1 | 1.33 | 1.11 | 0.246 | 0.245 | 0.302 | 0.28 | 0.244 | 0.329 | 0.295 | 0.332 | 0.334 | 0.256 |
